Values after ≈ are worked out from the molar mass of the structure shown.
Test: Solubility of the compound in deionized water
Format: physicochemical

Row | Structure (SMILES) | solubility
1 | O=C(c1cc(O)cc(F)c1)c1cc(O)c(O)c([N+](=O)[O-])c1 | 56 µg/mL (≈ 191 µM)
2 | Cc1ccc(C(=O)c2cc(O)c(O)c([N+](=O)[O-])c2)cc1 [TOLCAPONE] | 45 µg/mL (≈ 165 µM)

— ChEMBL document CHEMBL5096225 (J Med Chem, 2022)
